By bioavailability is commonly meant dose-corrected exposure relative to a reference, in per cent. Broadly, the efflux ratio is the permeability from basolateral to apical divided by that in the opposite direction, in the common usage. By Papp A→B is commonly meant how fast a substance crosses the layer from the apical side. As usually defined, the Papp B→A is how fast a substance crosses the layer from the basolateral side. In general, T/C refers to the ratio of treated to control. For orientation: TGI means how far tumour growth fell short of that in controls. Read a low TGI as little slowing of growth.

Here are results for 1 molecule from US11639355B2, “Substituted pyrrolo[3,4-d]imidazoles as MDM2-p53 inhibitors” (LUOXIN PHARMACEUTICAL (SHANGHAI) CO., LTD., priority 2018, dated 2023).

Read-outs that look alike come from different tables or passages of the source.

The nature of data set [1]: Pharmacokinetic study in mice, tail vein injection and oral cassette dosing. As to conditions: mouse, plasma, female Balb/c mice. Format: in vivo. The method, then: The purposes of the present disclosure are to study the pharmacokinetic behaviors of the compounds of the present disclosure in mice and to evaluate the pharmacokinetic characteristics thereof.
Healthy juvenile female Balb/c mice by weight of 20-30 g, 6 in total.
There were 6 female Balb/c mice, with after fasting overnight 3 mice administered a dose of 0.5 mg/kg via tail vein injection; the other 3 mice administered orally a dose of 2 mg/kg.
Blood was collected before administration and 0.08, 0.25, 0.5, 1, 2, 4, 8, and 24 hours after administration, placed in a heparinized anticoagulation tube, and centrifuged at 7000 rpm (5204 g) at 4° C., and the plasma was separated and stored at −80° C. 4 hours after administration, the mice were fed.
The LC/MS/MS method was used to determine the content of the compounds to be tested in mouse plasma after iv and oral administration. Plasma samples were analyzed after pretreatment of protein precipitation.

For data set [2] the following is noted: reported data; cited from earlier work.
For data set [3] the following is noted: reported data; cited from earlier work. The source holds these as a separate data set.
The next data set deals with P-glycoprotein (MDR1). Nature of the data set: Two-way permeability evaluation in MDR1-MDCK cells. Format: in vitro ADME. As to conditions: dog, MDCK-MDR1, pH 7.4, MDR1-MDCK. The text has this:
(§1) Experiment purpose: To determine the permeability of the test compounds in MDR1-MDCK cells
(§2) Experiment operation: MDR1-MDCK cells that permanently express human P-glycoprotein were inoculated on a 96-well Insert cell plate, and cultured for 4-7 days to form confluent monolayer cells. […] In addition, the cells were lysed with the cold acetonitrile solution containing the internal standard to measure the accumulation amount of intracellular compounds. The LC/MS/MS method was used to analyze the concentrations of the compounds to be tested in all samples (including an initial dosing solution, supernatant of the donor wells, receiver solution, and cell lysate). The concentrations of the test compounds were expressed by the ratio of the peak area thereof to the peak area of the internal standard to detect the permeability of the compounds from directions of A→B and B→A.

Data set [4] concerns P-glycoprotein (MDR1), human. Nature of the data set: Two-way permeability evaluation in MDR1-MDCK cells. The format is in vitro ADME. As to conditions: dog, MDR1-MDCK.
From the text: as §1, §2

Data set [5] is described as follows: Two-way permeability evaluation in Caco-2 cells. Format: in vitro ADME. The following applies: human; for recovery at 2.5 h, 2 μM: Caco-2, pH 7.4, Caco-2. The method, then:
Experiment purpose: To determine the permeability of the test compounds in Caco-2 cells
Experiment operation: Human colon cancer Caco-2 cells were inoculated on a 96-well Insert cell plate at a density of 1×10^5 cells/cm^2, and cultured for 4-5 days to form confluent monolayer cells. The test compounds was diluted with an HBSS buffer (pH 7.4) to a concentration of 2 μM, added to the top or basolateral side of the cells, and incubated at 37° C., 5% CO2 and saturated humidity for 2.5 hours, and then the sample solutions in the donor wells and receiver wells were taken and immediately mixed with a cold acetonitrile solution containing an internal standard. In addition, the cells were lysed with the cold acetonitrile solution containing the internal standard to measure the accumulation amount of intracellular compounds. The LC/MS/MS method was used to analyze the concentrations of the compounds to be tested in all samples (including an initial dosing solution, supernatant of the donor wells, receiver solution, and cell lysate). The concentrations of the test compounds were expressed by the ratio of the peak area thereof to the peak area of the internal standard to detect the permeability of the compounds from directions of A→B and B→A.

Another data set relates to MV4-11 tumor cells. Nature of the data set: Efficacy in mice with subcutaneously transplanted MV4-11 acute myeloid leukemia tumor. As to conditions: 6 mg/kg oral once a day. The format is in vivo. The method, then:
0.2 mL (10×10^6 cells, containing 50% Matrigel) of MV4-11 tumor cells were inoculated subcutaneously on the right back of each mouse to form a transplanted tumor; when the volume reached 100-200 mm^3, the animals were randomly grouped according to the tumor volume, with 8 in the negative control group, 8 in the positive control group, and 8 in the experimental group. […] The length (A) and width (B) of the tumor were measured with a vernier caliper twice a week, thereby calculating the tumor volume V=A×B^2/2. The calculation of relative tumor volume (RTV) follows: RTV=Vt/V0, where Vt is the tumor volume at the end of the administration, and V0 is the tumor volume measured before division into different cages for administration. The pharmacodynamic evaluation index of the anti-tumor activity is the relative tumor proliferation ratio T/C (%), and the calculation formula is: T/C (%)=TRTV/CRTV×100%. Where TRTV is the RTV of the treatment group; CRTV is the RTV of the negative control group. Efficacy evaluation criteria: T/C %>60% is invalid; T/C %≤60% and P<0.05 upon statistical treatment is valid.
CVt is the tumor volume of the control group at the end of the administration; CV0 is the tumor volume of the control group before division into different cages for administration; TVt is the tumor volume of the dosing group at the end of the administration; TV0 is the tumor volume of the dosing group before division into different cages for administration. The difference in tumor volumes between the dosing group and the control group was subjected to t-test. At the same time, the nude mice of each group were weighed twice a week to preliminarily evaluate the side effects of the drugs.

Setting [6] is: read-out: Average recovery rate A→B.
[7] abbreviates: read-out: Average recovery rate B→A.
The mark [8] stands for this setting: Caco-2, 2 μM, pH 7.4, 2.5 hours.

Regarding `COc1ncc(-c2nc3c(n2C(C)C)[C@H](c2ccc(Cl)cc2)N(c2cc(Cl)cn(C)c2=O)C3=O)c(OC)n1` [NVP-HDM201], the half-life in data set [1] (0.5 mg/kg, intravenous injection 0.5 mpk, read-out: Half-life T1/2 (converted)) was 42.6 min. In addition, in data set [1] (2 mg/kg, iv 0.5 mpk, oral 2 mpk, read-out: Oral bioavailability F), the bioavailability is 39.6%. Moreover, the AUC(0-t) in data set [1] (2 mg/kg, oral administration 2 mpk, read-out: Oral exposure AUC0-t) came to 1.32 µM·h. Further, the “stability in mouse liver microsomes” value in data set [2] is “poor”. Besides, the drug plasma exposure entry in data set [3] is “low”. In addition, in data set [3], the half-life in mice entry is on record as “short”. The recovery at 2.5 h, 2 μM in the data set on P-glycoprotein (MDR1) (setting [6]) worked out at 38%; with P-glycoprotein (MDR1) (setting [7]) it was 50%; in data set [5] (setting [6]), 94.3%; in data set [5] (setting [7]), 88.3%. Further, the efflux ratio at 2.5 h, 2 μM stood at 20.3 in data set [4] (pH 7.4) and 198 in data set [5] (Caco-2, pH 7.4). The apparent permeability from apical to basolateral (Papp A→B) at 2.5 h, 2 μM in data set [4] (2 μM, pH 7.4, 2.5 hours) was determined as 0.91 ×10⁻⁶ cm/s; in data set [5] (setting [8]), 0.17 ×10⁻⁶ cm/s. Moreover, the apparent permeability from basolateral to apical (Papp B→A) at 2.5 h, 2 μM in data set [4] (2 μM, pH 7.4, 2.5 hours) turned out to be 18.4 ×10⁻⁶ cm/s; in data set [5] (setting [8]), 34.3 ×10⁻⁶ cm/s. Also, the “RTV (21 days)” value with MV4-11 tumor cells worked out at 4.68 ± 0.69. Besides, in the data set on MV4-11 tumor cells (21 days), the T/C is reported as 73.58%. In addition, the TGI in the data set with MV4-11 tumor cells (21 days) came to 36.91%. Further, the “Tumor volume (Day 0)” value with MV4-11 tumor cells (Day 0, before administration) amounted to 153 ± 20 mm^3. Further, the “Tumor volume (Day 21)” value in the data set on MV4-11 tumor cells (Day 21) turned out to be 695 ± 115 mm^3.
